Experimental data as given in PubChem BioAssay AID270 (DTP/NCI, 2004).
Several values for one entry are separate records, joined by “and”; a condition that tells them apart may be missing. Equal entries are not always repeated. Inconclusive results are not listed.

System: BDF1 mice, s.c. Lewis lung carcinoma, T/C %
Assay: NCI In Vivo Anticancer Drug Screen. Data for tumor model Lewis Lung Carcinoma (subcutaneous) in B6D2F1 (BDF1) mice
Method in brief: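 Antitumor effect in vivo is scored from survival or tumor burden, reported as treated relative to vehicle controls.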

[1] = endpoint: median survival time, dose: 25.0 mg/kg/injection, schedule: Q01DX009 (ip), vehicle: Klucel (hydroxypropylcellulose) (HPC), higher = longer survival
[2] = endpoint: median survival time, dose: 50.0 mg/kg/injection, schedule: Q01DX009 (ip), vehicle: Klucel (hydroxypropylcellulose) (HPC), higher = longer survival
[3] = endpoint: median survival time, dose: 100.0 mg/kg/injection, schedule: Q01DX009 (ip), vehicle: Klucel (hydroxypropylcellulose) (HPC), higher = longer survival
[4] = endpoint: median survival time, dose: 200.0 mg/kg/injection, schedule: Q01DX009 (ip), vehicle: Klucel (hydroxypropylcellulose) (HPC), higher = longer survival

## CNc1nc(N(C)C)nc(N(C)C)n1
endpoint: median survival time, dose: 67.0 mg/kg/injection, schedule: Q01DX009 (ip), vehicle: water, higher = longer survival
  T/C: 91 % of control
endpoint: median survival time, dose: 100.0 mg/kg/injection, schedule: Q01DX009 (ip), vehicle: water, higher = longer survival
  T/C: 116 % of control

## CC(C)C1(C(=O)NNC(=O)CCCc2ccc(N(CCCl)CCCl)cc2)OC2(O)CCCCCN2C1=O (centres undefined)
endpoint: median survival time, dose: 3.12 mg/kg/injection, schedule: Q04DX003 (ip), vehicle: DMSO, higher = longer survival
  T/C: 111 % of control
endpoint: median survival time, dose: 6.25 mg/kg/injection, schedule: Q04DX003 (ip), vehicle: DMSO, higher = longer survival
  T/C: 116 % of control
endpoint: median survival time, dose: 12.5 mg/kg/injection, schedule: Q04DX003 (ip), vehicle: DMSO, higher = longer survival
  T/C: 102 % of control

## C[C@@H]1C[C@@H]([C@H](O)CC2CC(=O)NC(=O)C2)C(=O)[C@@H](C)C1
endpoint: mean tumor weight, dose: 15.0 mg/kg/injection, schedule: Q01DX011 (ip), vehicle: carboxymethylcellulose (CMC), higher = larger tumour
  T/C: 62 % of control and 81 % of control
endpoint: mean tumor weight, dose: 30.0 mg/kg/injection, schedule: Q01DX011 (ip), vehicle: carboxymethylcellulose (CMC), higher = larger tumour
  T/C: 50 % of control and 57 % of control

## C/C=C/c1cc2n(c1)C(=O)c1cc(OC3OC(C)C(NC)C(C)(O)C3O)c(C)c(O)c1NC2O (centres undefined)
endpoint: median survival time, dose: 2.0 micrograms/kg/injection, schedule: Q04DX003 (ip), vehicle: saline, higher = longer survival
  T/C: 102 % of control
endpoint: median survival time, dose: 4.0 micrograms/kg/injection, schedule: Q04DX003 (ip), vehicle: saline, higher = longer survival
  T/C: 92 % of control
endpoint: median survival time, dose: 8.0 micrograms/kg/injection, schedule: Q04DX003 (ip), vehicle: saline, higher = longer survival
  T/C: 103 % of control
endpoint: median survival time, dose: 16.0 micrograms/kg/injection, schedule: Q04DX003 (ip), vehicle: saline, higher = longer survival
  T/C: 95 % of control

## Cc1cc(N(CCCl)CCCl)ccc1C=Nc1cccnc1
[1]
  T/C: 104 % of control
endpoint: median survival time, dose: 25.0 mg/kg/injection, schedule: Q01DX009 (ip), vehicle: saline with Tween-80, higher = longer survival
  T/C: 95 % of control
[2]
  T/C: 96 % of control
endpoint: median survival time, dose: 50.0 mg/kg/injection, schedule: Q01DX009 (ip), vehicle: saline with Tween-80, higher = longer survival
  T/C: 92 % of control
[3]
  T/C: 103 % of control
endpoint: median survival time, dose: 100.0 mg/kg/injection, schedule: Q01DX009 (ip), vehicle: saline with Tween-80, higher = longer survival
  T/C: 93 % of control
[4]
  T/C: 98 % of control

## O=C(Nc1ccc(C2=NCCN2)cc1)c1cc(Cl)cc(C(=O)Nc2ccc(C3=NCCN3)cc2)c1
endpoint: mean tumor weight, dose: 100.0 mg/kg/injection, schedule: Q01DX011 (ip), vehicle: saline, higher = larger tumour
  T/C: 93 % of control
endpoint: mean tumor weight, dose: 200.0 mg/kg/injection, schedule: Q01DX011 (ip), vehicle: saline, higher = larger tumour
  T/C: 66 % of control
endpoint: mean tumor weight, dose: 400.0 mg/kg/injection, schedule: Q01DX011 (ip), vehicle: saline, higher = larger tumour
  T/C: 51 % of control
endpoint: mean tumor weight, dose: 800.0 mg/kg/injection, schedule: Q01DX011 (ip), vehicle: saline, higher = larger tumour
  T/C: 21 % of control

## CN(C)CCCNc1c2ccccc2nc2cccc([N+](=O)[O-])c12
endpoint: median survival time, dose: 2.0 micrograms/kg/injection, schedule: Q01DX009 (ip), vehicle: saline, higher = longer survival
  T/C: 98 % of control and 118 % of control
endpoint: median survival time, dose: 8.0 micrograms/kg/injection, schedule: Q01DX009 (ip), vehicle: saline, higher = longer survival
  T/C: 89 % of control
endpoint: median survival time, dose: 16.0 micrograms/kg/injection, schedule: Q01DX009 (ip), vehicle: saline, higher = longer survival
  T/C: 109 % of control
endpoint: median survival time, dose: 32.0 micrograms/kg/injection, schedule: Q01DX009 (ip), vehicle: saline, higher = longer survival
  T/C: 95 % of control
endpoint: median survival time, dose: 125.0 micrograms/kg/injection, schedule: Q01DX009 (ip), vehicle: saline, higher = longer survival
  T/C: 93 % of control

## NC(=O)N(CCCl)N=O
endpoint: mean tumor weight, dose: 0.63 mg/kg/injection, schedule: Q01DX011 (ip), vehicle: saline, higher = larger tumour
  T/C: 80 % of control
endpoint: mean tumor weight, dose: 1.25 mg/kg/injection, schedule: Q01DX011 (ip), vehicle: saline, higher = larger tumour
  T/C: 53 % of control
endpoint: mean tumor weight, dose: 2.5 mg/kg/injection, schedule: Q01DX011 (ip), vehicle: saline, higher = larger tumour
  T/C: 10 % of control
endpoint: median survival time, dose: 1.0 mg/kg/injection, schedule: Q01DX001 (ip), vehicle: saline + alcohol, higher = longer survival
  T/C: 120 % of control

## CC/C(=C(/CC)c1ccc(O)cc1)c1ccc(O)cc1
endpoint: mean tumor weight, dose: 12.5 mg/kg/injection, schedule: Q01DX011 (sc), vehicle: steriod suspending solution, higher = larger tumour
  T/C: 38 % of control
endpoint: mean tumor weight, dose: 25.0 mg/kg/injection, schedule: Q01DX011 (sc), vehicle: steriod suspending solution, higher = larger tumour
  T/C: 28 % of control
endpoint: mean tumor weight, dose: 50.0 mg/kg/injection, schedule: Q01DX011 (sc), vehicle: steriod suspending solution, higher = larger tumour
  T/C: 17 % of control
endpoint: mean tumor weight, dose: 100.0 mg/kg/injection, schedule: Q01DX011 (sc), vehicle: steriod suspending solution, higher = larger tumour
  T/C: 21 % of control
[1]
  T/C: 120 % of control
[2]
  T/C: 106 % of control
[3]
  T/C: 113 % of control
[4]
  T/C: 124 % of control
